Measured values: ChEMBL document CHEMBL1201862, “PubChem BioAssay data set” (2004)
Active and inactive are the calls of the source.

Assays:
Type in all cases: functional
[1] = biological target: T1, Apoptotic protease-activating factor 1 (Homo sapiens, UniProt O14727)
T1 sequence (O14727 whole entry): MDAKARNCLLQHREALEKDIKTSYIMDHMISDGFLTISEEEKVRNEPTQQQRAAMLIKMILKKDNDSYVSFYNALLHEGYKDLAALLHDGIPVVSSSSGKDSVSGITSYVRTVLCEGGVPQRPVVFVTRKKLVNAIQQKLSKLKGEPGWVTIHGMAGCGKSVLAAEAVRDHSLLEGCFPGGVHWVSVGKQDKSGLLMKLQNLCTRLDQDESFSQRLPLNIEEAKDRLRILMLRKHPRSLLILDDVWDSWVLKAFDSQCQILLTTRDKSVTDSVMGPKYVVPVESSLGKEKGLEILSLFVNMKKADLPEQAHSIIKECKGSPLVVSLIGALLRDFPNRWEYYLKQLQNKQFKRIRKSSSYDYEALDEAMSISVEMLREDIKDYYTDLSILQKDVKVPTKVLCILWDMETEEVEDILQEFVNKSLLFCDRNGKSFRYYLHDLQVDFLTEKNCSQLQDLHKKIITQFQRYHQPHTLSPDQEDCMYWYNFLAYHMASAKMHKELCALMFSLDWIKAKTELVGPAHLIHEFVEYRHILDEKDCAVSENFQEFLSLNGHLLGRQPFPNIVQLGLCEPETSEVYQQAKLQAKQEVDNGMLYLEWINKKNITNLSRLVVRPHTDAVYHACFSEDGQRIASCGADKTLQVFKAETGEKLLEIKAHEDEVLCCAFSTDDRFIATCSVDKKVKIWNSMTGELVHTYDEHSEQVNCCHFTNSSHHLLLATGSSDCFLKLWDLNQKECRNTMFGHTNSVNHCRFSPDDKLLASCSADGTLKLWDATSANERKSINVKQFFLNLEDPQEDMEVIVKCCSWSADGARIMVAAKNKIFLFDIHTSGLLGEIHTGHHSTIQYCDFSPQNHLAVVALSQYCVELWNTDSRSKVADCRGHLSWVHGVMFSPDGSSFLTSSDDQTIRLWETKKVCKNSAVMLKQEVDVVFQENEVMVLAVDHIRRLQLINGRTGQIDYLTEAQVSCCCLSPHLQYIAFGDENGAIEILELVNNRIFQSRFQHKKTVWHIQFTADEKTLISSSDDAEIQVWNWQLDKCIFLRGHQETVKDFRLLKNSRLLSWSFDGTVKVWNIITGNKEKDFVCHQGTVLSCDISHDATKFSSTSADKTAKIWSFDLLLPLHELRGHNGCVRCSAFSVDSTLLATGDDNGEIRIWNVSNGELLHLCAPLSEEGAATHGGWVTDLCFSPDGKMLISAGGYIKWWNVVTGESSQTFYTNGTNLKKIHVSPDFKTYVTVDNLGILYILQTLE

[2] = biological target: SUMO-activating enzyme (Homo sapiens, UniProt Q9UBT2); assay: SUMOylation inhibitor hit validation, confirmation, SUMOylation inhibitor project, biochemical, AlphaScreen (AID 2018)
Chain of SUMO-activating enzyme (Q9UBE0 whole entry): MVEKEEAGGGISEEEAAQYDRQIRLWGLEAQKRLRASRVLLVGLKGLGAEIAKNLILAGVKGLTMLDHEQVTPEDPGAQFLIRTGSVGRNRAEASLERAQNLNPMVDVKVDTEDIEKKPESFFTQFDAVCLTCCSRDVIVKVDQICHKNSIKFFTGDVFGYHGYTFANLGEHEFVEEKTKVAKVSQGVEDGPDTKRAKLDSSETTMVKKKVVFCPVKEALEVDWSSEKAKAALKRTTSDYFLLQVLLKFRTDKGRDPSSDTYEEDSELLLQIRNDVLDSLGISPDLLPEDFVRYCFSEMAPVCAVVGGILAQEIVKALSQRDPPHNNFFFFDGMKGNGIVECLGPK
Chain of SUMO-activating enzyme (Q9UBT2 whole entry): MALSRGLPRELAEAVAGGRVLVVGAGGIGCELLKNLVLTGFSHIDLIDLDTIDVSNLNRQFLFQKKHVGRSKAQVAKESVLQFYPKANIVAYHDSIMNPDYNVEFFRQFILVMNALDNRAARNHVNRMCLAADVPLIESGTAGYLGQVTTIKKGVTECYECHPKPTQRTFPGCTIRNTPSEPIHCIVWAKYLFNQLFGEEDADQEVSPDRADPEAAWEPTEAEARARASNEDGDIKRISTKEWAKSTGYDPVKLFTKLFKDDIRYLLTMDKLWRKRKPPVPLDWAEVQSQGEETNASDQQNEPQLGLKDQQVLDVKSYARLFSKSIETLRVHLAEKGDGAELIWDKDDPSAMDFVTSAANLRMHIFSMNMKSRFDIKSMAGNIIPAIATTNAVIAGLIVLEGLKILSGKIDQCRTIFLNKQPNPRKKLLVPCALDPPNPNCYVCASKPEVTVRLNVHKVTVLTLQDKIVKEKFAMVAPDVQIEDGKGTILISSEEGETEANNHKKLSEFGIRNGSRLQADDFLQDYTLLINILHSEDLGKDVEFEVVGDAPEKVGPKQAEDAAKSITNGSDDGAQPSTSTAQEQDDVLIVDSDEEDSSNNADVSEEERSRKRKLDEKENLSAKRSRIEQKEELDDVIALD

[3] = biological target: T2, Protein RecA (Mycobacterium tuberculosis, UniProt P9WHJ3); assay: Fluorescence Cell-Free Homogeneous Dose Retest to Identify Inhibitors of RecA-Intein Splicing Activity. [Related pubchem assays (depositor defined):AID2097, AID2223, AID489010, AID492950]
T2 sequence (P9WHJ3 whole entry): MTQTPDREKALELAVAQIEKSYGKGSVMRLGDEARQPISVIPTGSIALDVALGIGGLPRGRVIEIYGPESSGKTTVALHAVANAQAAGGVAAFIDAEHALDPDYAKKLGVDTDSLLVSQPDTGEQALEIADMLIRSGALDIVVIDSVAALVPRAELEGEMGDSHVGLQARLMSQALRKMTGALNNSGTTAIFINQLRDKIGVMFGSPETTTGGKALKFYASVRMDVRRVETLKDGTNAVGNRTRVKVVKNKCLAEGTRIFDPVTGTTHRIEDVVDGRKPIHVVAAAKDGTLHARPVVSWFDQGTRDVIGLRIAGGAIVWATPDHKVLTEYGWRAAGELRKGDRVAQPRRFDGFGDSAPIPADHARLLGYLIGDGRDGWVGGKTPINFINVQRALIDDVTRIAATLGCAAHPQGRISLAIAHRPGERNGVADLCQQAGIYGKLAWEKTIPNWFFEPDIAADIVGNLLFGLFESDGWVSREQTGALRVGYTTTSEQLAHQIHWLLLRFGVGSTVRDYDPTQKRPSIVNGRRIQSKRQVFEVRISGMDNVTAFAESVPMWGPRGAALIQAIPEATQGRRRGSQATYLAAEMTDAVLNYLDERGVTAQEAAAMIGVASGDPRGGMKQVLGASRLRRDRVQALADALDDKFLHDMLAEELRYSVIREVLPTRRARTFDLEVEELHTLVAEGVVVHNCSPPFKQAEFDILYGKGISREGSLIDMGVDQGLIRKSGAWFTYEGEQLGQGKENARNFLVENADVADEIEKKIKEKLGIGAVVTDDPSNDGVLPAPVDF

[4] = biological target: T3, Replicative DNA helicase DnaB (Mycobacterium tuberculosis, UniProt P9WMR3); assay: DnaB intein splicing inhibitors, dose response, biochemical, cell-free fluorescence (AID 449749)
T3 sequence (P9WMR3 whole entry): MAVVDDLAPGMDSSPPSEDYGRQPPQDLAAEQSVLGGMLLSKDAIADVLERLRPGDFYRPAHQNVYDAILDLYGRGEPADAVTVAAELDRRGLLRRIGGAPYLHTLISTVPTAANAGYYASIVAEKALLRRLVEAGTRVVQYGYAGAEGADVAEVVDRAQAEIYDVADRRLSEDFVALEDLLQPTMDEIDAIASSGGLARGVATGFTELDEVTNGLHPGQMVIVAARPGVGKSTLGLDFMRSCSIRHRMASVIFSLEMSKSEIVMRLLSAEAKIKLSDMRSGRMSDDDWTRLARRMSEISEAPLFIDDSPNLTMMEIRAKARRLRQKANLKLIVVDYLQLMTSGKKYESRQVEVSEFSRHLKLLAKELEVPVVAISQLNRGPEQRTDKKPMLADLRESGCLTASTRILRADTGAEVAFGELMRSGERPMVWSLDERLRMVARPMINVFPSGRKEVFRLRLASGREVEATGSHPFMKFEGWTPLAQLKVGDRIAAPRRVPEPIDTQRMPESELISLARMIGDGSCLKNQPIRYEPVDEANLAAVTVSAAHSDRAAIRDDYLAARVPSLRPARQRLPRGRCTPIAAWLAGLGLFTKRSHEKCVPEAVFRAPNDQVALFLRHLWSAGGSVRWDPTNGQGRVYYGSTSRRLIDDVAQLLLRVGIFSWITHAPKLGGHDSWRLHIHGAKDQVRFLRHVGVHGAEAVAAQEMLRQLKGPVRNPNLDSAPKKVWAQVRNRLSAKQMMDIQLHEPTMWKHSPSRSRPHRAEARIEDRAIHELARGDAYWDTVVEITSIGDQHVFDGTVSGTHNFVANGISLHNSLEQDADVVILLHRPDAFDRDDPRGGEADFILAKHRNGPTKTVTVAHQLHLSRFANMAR

SMILES | IC50 [1] | IC50 [2] | EC50 [3] | AC50 [4]
O=C(NNc1cc(N2CCOCC2)nc(N2CCOCC2)n1)c1ccc([N+](=O)[O-])cc1 | 13.6 µM (active) | 6.57 µM (active) |  | 
Oc1ccc(/N=C/c2ccc(OCc3ccccc3)cc2)cc1 |  |  | > 380 µM (inactive) | > 380 µM (inactive)
Nc1c(N2CCCC2)cc(Cl)c2nonc12 | 11 µM (active) | 2.16 µM (active) | 1.65 µM (active) | 8.9 µM (active)
